This is an account of results in patent US8603467B2 (priority 2007, dated 2013).

The test system of experiment [1] is 8G9/HRP (binding to virus strain Ck/HK/Yu22/02).
Experiment [2] relates to 8G9 ascites (HI activity for Ck/HKYU22/02 virus). Format: biochemical.

On to H T P C D T R D C V L R [G2], for which, in experiment [1], the “Competition with avian influenza virus for 8G9/HRP” value is recorded as “had competition activity”. Also, the HI blocking effect entry in experiment [2] is listed as “could clearly block”.
